The values below come from patent publication US20250179061A1 (SIRONAX LTD., priority 2022, published 2025).

Structures can show the parent of a compound that is named as a salt. Where two headings read alike, the source gives them in different places.

The experiment has as its system HT-29 cells. Kind of experiment: HT-29 necroptosis cell viability assay (TNF-α/SMAC mimetic/zVAD-FMK, CellTiter-Glo). The format is cell-based. The following applies: Homo sapiens. In outline: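 Necroptosis was triggered by TNF-α (10 ng/ml), SMAC mimetic (6 μM) and zVAD-FMK (10 μM) in serum-free medium during 20 h compound exposure (10 concentrations, threefold steps) of HT-29 cells. IC50 from duplicate dose-responses uses CellTiter-Glo ATP luminescence as viability read-out.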

[1] abbreviates: HT-29, HT-29 necroptosis cell viability assay, class symbols for IC50, read-out: Activity.
[2] abbreviates: HT-29 cells stimulated with TNF-α (10 ng/ml), SMAC mimetic (6 μM) and zVAD-FMK (10 μM), 20 hours, CellTiter-Glo ATP luminescence, geometric mean IC50 from 10 points, read-out: Activity.
Where [3] appears, read: HT-29, HT-29 necroptosis cell viability, IC50 class symbols, read-out: Activity.
Setting [4] is: HT-29, HT-29 cells, necroptosis induced by TNF-α/SMAC mimetic/zVAD-FMK, CellTiter-Glo, read-out: Activity (IC50 class).

As to `O=c1n(Cc2c(F)cccc2F)cnn1-c1ccc(C2=CCOCC2)cc1` [Example 536, 4-(2,6-difluorobenzyl)-2-(4-(3,6-dihydro-2H-pyran-4-yl)phenyl)-2,4-dihydro-3H-1,2,4-triazol-3-one], the IC50 under setting [1] was 1000 to 10000 nM.

As to `Cc1ncsc1Cc1ccc(-n2ncn(Cc3c(F)cccc3F)c2=O)cc1F` [Example 59, 4-(2,6-difluorobenzyl)-2-(3-fluoro-4-((4-methylthiazol-5-yl)methyl)phenyl)-2,4-dihydro-3H-1,2,4-triazol-3-one], the IC50 under setting [2] was under 100 nM.

Regarding `Cc1nc(C(C)(C)O)cn1Cc1ccc(-n2ncn(Cc3c(F)cccc3F)c2=O)cc1F` [Example 137, 4-(2,6-difluorobenzyl)-2-(3-fluoro-4-((4-(2-hydroxypropan-2-yl)-2-methyl-1H-imidazol-1-yl)methyl)phenyl)-2,4-dihydro-3H-1,2,4-triazol-3-one], the IC50 under setting [1] was 1000 to 10000 nM. On the same count and under the same terms, then `CCOC(=O)c1nn(Cc2ccc(-n3ncn(Cc4c(F)cccc4F)c3=O)cc2F)c(C)c1C` [Example 202, ethyl 1-(4-(4-(2,6-difluorobenzyl)-5-oxo-4,5-dihydro-1H-1,2,4-triazol-1-yl)-2-fluorobenzyl)-4,5-dimethyl-1H-pyrazole-3-carboxylate], with under 100 nM; and `Cc1nc(NC(=O)OC(C)(C)C)sc1Sc1ccc(-n2ncn(Cc3ccccc3)c2=O)cc1` [Example 612, tert-butyl (5-((4-(4-benzyl-5-oxo-4,5-dihydro-1H-1,2,4-triazol-1-yl)phenyl)thio)-4-methylthiazol-2-yl)carbamate], with under 100 nM. Take `Cc1cnc(N2CCC(C)(C#N)C2)cc1Oc1ccc(-n2ncn(Cc3c(F)cccc3F)c2=O)cc1Cl` (centres unmarked) [Example 397, 1-(4-(2-chloro-4-(4-(2,6-difluorobenzyl)-5-oxo-4,5-dihydro-1H-1,2,4-triazol-1-yl)phenoxy)-5-methylpyridin-2-yl)-3-methylpyrrolidine-3-carbonitrile]: the IC50 under setting [3] is under 100 nM. Turning to `O=c1n(Cc2c(F)cccc2F)cnn1-c1ccc(Oc2ccnc(N3CC4(CCCOC4)C3)c2)cc1` [Example 335, 2-(4-((2-(6-oxa-2-azaspiro[3.5]nonan-2-yl)pyridin-4-yl)oxy)phenyl)-4-(2,6-difluorobenzyl)-2,4-dihydro-3H-1,2,4-triazol-3-one], the IC50 under setting [3] was under 100 nM.

Turning to `CCOC1(C)CN(c2nccc(Oc3ccc(-n4ncn(Cc5c(F)cccc5F)c4=O)cc3Cl)c2F)C1` [Example 502, 2-(3-chloro-4-((2-(3-ethoxy-3-methylazetidin-1-yl)-3-fluoropyridin-4-yl)oxy)phenyl)-4-(2,6-difluorobenzyl)-2,4-dihydro-3H-1,2,4-triazol-3-one], the IC50 under setting [1] was under 100 nM. As for `Cc1nc(C(N)=O)sc1Oc1ccc(-n2nc3n(c2=O)[C@H](c2ccccc2)CC3)cc1` (single isomer, unassigned) [Example 17], under setting [2], the IC50 was under 100 nM.

In the case of `Cc1nc(N2CCC(N)(C(F)(F)F)C2)sc1Cc1ccc(-n2ncn(Cc3c(F)cccc3F)c2=O)cc1F` (centres unmarked) [Example 60, 2-(4-((2-(3-amino-3-(trifluoromethyl)pyrrolidin-1-yl)-4-methylthiazol-5-yl)methyl)-3-fluorophenyl)-4-(2,6-difluorobenzyl)-2,4-dihydro-3H-1,2,4-triazol-3-one formate], the IC50 under setting [2] is under 100 nM.

`Cc1nc(C2CCN(C)C2)sc1Oc1ccc(-n2ncn(Cc3c(F)cccc3F)c2=O)cc1` (centres unmarked) [Example 554, 4-(2,6-difluorobenzyl)-2-(4-((4-methyl-2-(1-methylpyrrolidin-3-yl)thiazol-5-yl)oxy)phenyl)-2,4-dihydro-3H-1,2,4-triazol-3-one]: the IC50 under setting [1] is under 100 nM. Take `CCOC(=O)c1c(C)nc(Oc2ccc(-n3ncn(Cc4c(F)cccc4F)c3=O)cc2F)n1C` [Example 182, ethyl 2-(4-(4-(2,6-difluorobenzyl)-5-oxo-4,5-dihydro-1H-1,2,4-triazol-1-yl)-2-fluorophenoxy)-1,4-dimethyl-1H-imidazole-5-carboxylate]: under setting [1], the IC50 was 100 to 1000 nM. With `Cc1cc(-n2ncn(Cc3c(F)cccc3F)c2=O)ccc1Oc1ccnc(N2CC3(CCOCC3)C2)c1` [Example 274, 2-(4-((2-(7-oxa-2-azaspiro[3.5]nonan-2-yl)pyridin-4-yl)oxy)-3-methylphenyl)-4-(2,6-difluorobenzyl)-2,4-dihydro-3H-1,2,4-triazol-3-one], the IC50 under setting [3] fell in the range of 1000 to 10000 nM. Still for that read-out and setting: the figure for `CC1(C#N)CN(c2nccc(Oc3ccc(-n4ncn(Cc5c(F)cccc5F)c4=O)cc3Cl)c2F)C1` [Example 224, 1-(4-(2-chloro-4-(4-(2,6-difluorobenzyl)-5-oxo-4,5-dihydro-1H-1,2,4-triazol-1-yl)phenoxy)-3-fluoropyridin-2-yl)-3-methylazetidine-3-carbonitrile] is under 100 nM.

Take `Cc1nc(C(=O)NN)sc1Oc1ccc(-n2ncn(Cc3ccccc3F)c2=O)cc1F` [Example 596, 5-(2-fluoro-4-(4-(2-fluorobenzyl)-5-oxo-4,5-dihydro-1H-1,2,4-triazol-1-yl)phenoxy)-4-methylthiazole-2-carbohydrazide]: the IC50 under setting [1] was under 100 nM. With `O=c1n(Cc2c(F)cccc2F)cnn1-c1ccc(Oc2ccnc(NCC3CC3)c2)cc1` [Example 524, 2-(4-((2-((cyclopropylmethyl)amino)pyridin-4-yl)oxy)phenyl)-4-(2,6-difluorobenzyl)-2,4-dihydro-3H-1,2,4-triazol-3-one], the IC50 under setting [1] was under 100 nM. As for `Cc1nc(C(O)C(F)F)sc1Oc1ccc(-n2ncn(Cc3c(F)cccc3F)c2=O)cc1F` (centres unmarked) [Example 446, 2-(4-((2-(2,2-difluoro-1-hydroxyethyl)-4-methylthiazol-5-yl)oxy)-3-fluorophenyl)-4-(2,6-difluorobenzyl)-2,4-dihydro-3H-1,2,4-triazol-3-one], under setting [3], the IC50 was under 100 nM. For the compound `CCOC1CN(c2nc(C)c(Oc3ccc(-n4ncn(Cc5c(F)cccc5F)c4=O)cc3)n2C)C1` [Example 183, 4-(2,6-difluorobenzyl)-2-(4-((2-(3-ethoxyazetidin-1-yl)-1,4-dimethyl-1H-imidazol-5-yl)oxy)phenyl)-2,4-dihydro-3H-1,2,4-triazol-3-one], under setting [1], the IC50 was under 100 nM. Regarding `Cc1nn(-c2ccc(Cc3ccccc3)cc2)c(=O)n1Cc1ccccc1` [Example 65, 4-benzyl-2-(4-benzylphenyl)-5-methyl-2,4-dihydro-3H-1,2,4-triazol-3-one], the IC50 under setting [2] is under 100 nM.

As to `Cc1cc(C(N)=O)c(C)n1Cc1ccc(-n2ncn(Cc3c(F)cccc3F)c2=O)cc1F` [Example 219, 1-(4-(4-(2,6-difluorobenzyl)-5-oxo-4,5-dihydro-1H-1,2,4-triazol-1-yl)-2-fluorobenzyl)-2,5-dimethyl-1H-pyrrole-3-carboxamide], the IC50 under setting [1] is under 100 nM. On to `O=c1n(Cc2c(F)cccc2F)cnn1-c1ccc(Oc2ccnc(N3CCC4(CCOCC4)C3)c2)cc1` [Example 340, 2-(4-((2-(8-oxa-2-azaspiro[4.5]decan-2-yl)pyridin-4-yl)oxy)phenyl)-4-(2,6-difluorobenzyl)-2,4-dihydro-3H-1,2,4-triazol-3-one], for which, under setting [3], the IC50 is under 100 nM.

For the compound `CC1(OC(F)(F)F)CN(c2cc(Oc3ccc(-n4ncn(Cc5c(F)cccc5F)c4=O)cc3F)c(F)cn2)C1` [Example 505, 4-(2,6-difluorobenzyl)-2-(3-fluoro-4-((5-fluoro-2-(3-methyl-3-(trifluoromethoxy)azetidin-1-yl)pyridin-4-yl)oxy)phenyl)-2,4-dihydro-3H-1,2,4-triazol-3-one], the IC50 under setting [1] was under 100 nM. Take `Cc1nc(N2CC(C)(C#N)C2)nn1Cc1ccc(-n2ncn(Cc3c(F)cccc3F)c2=O)cc1` [Example 665, 1-(1-(4-(4-(2,6-difluorobenzyl)-5-oxo-4,5-dihydro-1H-1,2,4-triazol-1-yl)benzyl)-5-methyl-1H-1,2,4-triazol-3-yl)-3-methylazetidine-3-carbonitrile]: the IC50 under setting [4] fell in the range of 1000 to 10000 nM. Turning to `CCOC(=O)c1ncn(Cc2ccc(-n3ncn(Cc4c(F)cccc4F)c3=O)cc2F)c1C` [Example 196, ethyl 1-(4-(4-(2,6-difluorobenzyl)-5-oxo-4,5-dihydro-1H-1,2,4-triazol-1-yl)-2-fluorobenzyl)-5-methyl-1H-imidazole-4-carboxylate], the IC50 under setting [1] was under 100 nM. As to `Cn1ncc(N)c1Oc1ccc(-n2ncn(Cc3c(F)cccc3F)c2=O)cc1` [Example 443, 2-(4-((4-amino-1-methyl-1H-pyrazol-5-yl)oxy)phenyl)-4-(2,6-difluorobenzyl)-2,4-dihydro-3H-1,2,4-triazol-3-one], the IC50 under setting [3] was in the range of 100 to 1000 nM. On the same count and under the same terms, the figure for `O=c1n(Cc2c(F)cccc2F)cnn1-c1ccc(Oc2ccccc2[N+](=O)[O-])cc1` [Example 433, 4-(2,6-difluorobenzyl)-2-(4-(2-nitrophenoxy)phenyl)-2,4-dihydro-3H-1,2,4-triazol-3-one] is 100 to 1000 nM. Still for that read-out and setting: the figure for `CC1(CN)CN(c2cc(Oc3ccc(-n4ncn(Cc5c(F)cccc5F)c4=O)cc3F)c(F)cn2)C1` [Example 399, 2-(4-((2-(3-(aminomethyl)-3-methylazetidin-1-yl)-5-fluoropyridin-4-yl)oxy)-3-fluorophenyl)-4-(2,6-difluorobenzyl)-2,4-dihydro-3H-1,2,4-triazol-3-one] is 100 to 1000 nM. As to `Cc1nc(C(F)(F)C(N)=O)sc1Oc1ccc(-n2ncn(Cc3c(F)cccc3F)c2=O)cc1F` [Example 116, 2-(5-(4-(4-(2,6-difluorobenzyl)-5-oxo-4,5-dihydro-1H-1,2,4-triazol-1-yl)-2-fluorophenoxy)-4-methylthiazol-2-yl)-2,2-difluoroacetamide], the IC50 under setting [1] was under 100 nM. With `Cc1nc(C(N)=O)sc1Oc1ncc(-n2nc3n(c2=O)[C@H](c2ccccc2)CC3)cc1Cl` (single isomer, unassigned) [Example 640], under setting [4], the IC50 was under 100 nM.
